Values joined by “and” are separate entries in the source; they are usually repeats but may differ in a detail not shown here. Equal values may be shown once. “Also recorded” adds a separate entry of the source. Read-outs that look alike come from different tables or passages of the source.
Columns and labels:
Mtb PanD [1] = molecular target: T1, Mtb PanD (Mycobacterium tuberculosis, UniProt P9WIL3); test: biochemical; type: biochemical; conditions: for remaining activity at 312.5 µM / remaining activity at 625 µM / remaining activity at 1250 µM / remaining activity at 2500 µM / remaining activity at 5000 µM / remaining activity at 10000 µM / remaining activity at 20000 µM: read-out: Fractional Activity
T1 construct: The active protein consists of a β chain (Met1-Gly24) and an α chain (Pyr25 to ILE115); we observed the processed active enzyme after cleavage between Gly24 and Ser25; inferred from the pET21c(+) vector and HisTrap purification); made in house; host or cells: Escherichia coli BL21(DE3)

Mtb PanD [2] = molecular target: T1, Mtb PanD; test: Isothermal titration calorimetry, wild type; type: binding; conditions: for ΔH / ΔS: mean
Protocol: ITC experiments were performed using a MicroCal iTC200 (GE). Both protein and ligands were in a buffer of 100 mM Tris, pH 7.5. The protein concentration in the cell was 0.5 mM, and the ligand concentration was 20 mM. The titration was performed at 20 °C. The data were analyzed with the Origin 7.0 software and fitted with a single-site binding model.

Mtb cultures = conditions: cited from earlier work
PanD = system: PanD; design: method as in PMID 23029336; conditions: cited from earlier work

T1 sequence (P9WIL3 1-24): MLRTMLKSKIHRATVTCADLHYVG
T1 sequence (P9WIL3 25-139): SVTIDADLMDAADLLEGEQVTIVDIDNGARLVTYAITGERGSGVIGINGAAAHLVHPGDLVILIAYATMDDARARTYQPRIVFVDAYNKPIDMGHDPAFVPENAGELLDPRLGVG

Row | Structure (SMILES) | inhibition of Mtb PanD (Mtb PanD [1]) | remaining activity at 312.5 µM (Mtb PanD [1]; compound conc 0.3125 mM) | remaining activity at 625 µM (Mtb PanD [1]; compound conc 0.625 mM) | remaining activity at 1250 µM (Mtb PanD [1]; compound conc 1.25 mM) | remaining activity at 2500 µM (Mtb PanD [1]; compound conc 2.5 mM) | remaining activity at 5000 µM (Mtb PanD [1]; compound conc 5 mM) | remaining activity at 10000 µM (Mtb PanD [1]; compound conc 10 mM) | remaining activity at 20000 µM (Mtb PanD [1]; compound conc 20 mM) | further results
1 | O=C(O)c1cnc(Cl)cn1 [5-Cl-POA] | no inhibition | 92.8% | 89.8% | 80.2% | 67.7% | 52.9% | 51.6% | 44.3% | 
2 | O=C(O)c1cncc(Cl)n1 [6-Cl-POA, 6-chloropyrazinoic acid] | inhibitor of PanD | 81.8% | 69.3% | 51.7% | 35% | 22.9% | 19.8% | 8.91% | Ki (Mtb PanD [1]): 1000 µM; mode of inhibition (Mtb PanD [1]): competitive; Kd (Mtb PanD [2]; ITC, 20 °C, 100 mM Tris pH 7.5, single-site model, mean of separate experiments): 1090 µM; ΔH (Mtb PanD [2]; ITC, 20 °C, 100 mM Tris pH 7.5): −3300 (100) cal mol^−1; ΔS (Mtb PanD [2]; ITC, 20 °C, 100 mM Tris pH 7.5): 2.2 (0.5) cal mol^−1 deg^−1; Kd (Mtb PanD [2]; ITC, wt, single experiments): 1090 µM and 1140 µM and 1050 µM; ΔS (cal/mol /deg) (Mtb PanD [2]; ITC, wt, single experiments): 2.27 cal/mol /deg and 1.7 cal/mol /deg and 2.71 cal/mol /deg
3 | O=C(O)c1cccnc1 [NA, nicotinic acid] | lack of inhibitory activity; also recorded: None of these compounds inhibited |  |  |  |  |  |  |  | remaining activity at 312.5 µM (Mtb PanD [1]): 101%; remaining activity at 625 µM (Mtb PanD [1]): 98.1%; remaining activity at 1250 µM (Mtb PanD [1]): 96.6%; remaining activity at 2500 µM (Mtb PanD [1]): 90.2%; remaining activity at 5000 µM (Mtb PanD [1]): 87.2%; remaining activity at 10000 µM (Mtb PanD [1]): 82.2%; remaining activity at 20000 µM (Mtb PanD [1]): 61.4%; binding in ITC (Mtb PanD [2]; 100 mM Tris pH 7.5): no binding
4 | O=C(O)c1cnccn1 [POA, pyrazinoic acid] |  | 81.2% | 66.4% | 52.9% | 34.8% | 21.6% | 13.4% | 7.44% | mode of inhibition (Mtb PanD [1]): competitive with aspartate; ΔH (Mtb PanD [2]; ITC, 20 °C, 100 mM Tris pH 7.5): -4200 (200) cal mol^−1; ΔS (Mtb PanD [2]; ITC, 20 °C, 100 mM Tris pH 7.5): 0.1 (0.7) cal mol^−1 deg^−1
5 | NC(=O)c1cnccn1 [PZA, pyrazinamide] | lack of inhibitory activity; also recorded: None of these compounds inhibited | 104% | 105% | 101% | 104% | 101% | 98.7% | 91.5% | minimal inhibitory concentration (Mtb cultures; mildly acidic (<pH6), ref 2 (peer review file list)): 0.4-1.6 mM and 50 – 200 µg/ml; minimum inhibitory concentrations (Mtb cultures; mildly acidic pH): 400 to 1600 µM; activity against Mtb cultures (Mtb cultures; normal media): not active
6 | N[C@@H](CC(=O)O)C(=O)O [aspartate, L-aspartate] |  |  |  |  |  |  |  |  | Km (Mtb PanD [1]): 1080 µM
7 | O=C(O)C(O)C(O)C(=O)O (stereo not shown) [tartrate] |  |  |  |  |  |  |  |  | inhibitor of the enzyme (PanD): known inhibitor

From publication PMC6969166, “The molecular basis of pyrazinamide activity on Mycobacterium tuberculosis PanD” (Nature Communications, 2020)
